Measured values from patent publication US20090143421A1, “USE OF 2-BENZOYL-IMIDAZOPYRIDINES IN THERAPEUTICS” (SANOFI-AVENTIS, priority 2006, published 2009).
Counter-ions that a name gives are not always drawn.

How the values were obtained:
human NOT receptor = test: binding to the human NOT receptor by SPR (BIACORE S51); settings: immobilized GST-NOT whole protein and NOT ligand-binding domain, 3.75 to 0.1 μM, 4° C.
Description: Evaluation of the Binding to the Human NOT Receptor
The direct binding between compounds of the invention and the human NOT receptor was evaluated using SPR (surface plasmon resonance) technology. In this assay, the protein is immobilized covalently to the matrix and the molecule to be studied is injected into the chamber containing the sensor chip. The signal is directly proportional to the amount of product bound to the protein. The binding assays were carried out in a BIACORE S51 instrument (Biacore Inc., Piscataway N.J.). The GST-NOT (NOT-FL) whole protein was provided by Invitrogen (PV3265). The NOT ligand-binding domain (His-Thr-NOT 329-598) was expressed and purified as described in Nature 423, 555-560. The two proteins, diluted to a concentration of 20 μg/ml in an acetate buffer, pH 5.0, containing 5 mM of DTT, were immobilized on a carboxymethyl 5′ dextran surface (CM5 sensor chip, Biacore Inc.) by amine coupling according to the protocol recommended by Biacore, elution being carried with an HBS-N buffer (10 mM HEPES, 0.15 M NaCl, 3 mM EDTA, pH 7.4). Approximately 10000-15000 resonance units (RU) of the proteins are captured on the surface of the CM5 sensor chip. […] The dissociation was recorded for 5 minutes without any other procedure for regenerating the surface. […]

mouse Nurrl receptor = biological target: T1, mouse Nurrl receptor (Mus musculus, UniProt Q06219); test: in vitro activity on N2A cells (NBRE-luciferase reporter); type: cell-based; settings: N2A-8NBRE-luciferase cells, 24 hours incubation with the products
T1 construct: a cell line (N2A) endogenously expressing the mouse Nurrl receptor; host or cells: Neuro-2A (N2A) mouse neuroblastoma cells stably transfected with 8NBRE-luciferase
T1 sequence (Q06219 whole entry): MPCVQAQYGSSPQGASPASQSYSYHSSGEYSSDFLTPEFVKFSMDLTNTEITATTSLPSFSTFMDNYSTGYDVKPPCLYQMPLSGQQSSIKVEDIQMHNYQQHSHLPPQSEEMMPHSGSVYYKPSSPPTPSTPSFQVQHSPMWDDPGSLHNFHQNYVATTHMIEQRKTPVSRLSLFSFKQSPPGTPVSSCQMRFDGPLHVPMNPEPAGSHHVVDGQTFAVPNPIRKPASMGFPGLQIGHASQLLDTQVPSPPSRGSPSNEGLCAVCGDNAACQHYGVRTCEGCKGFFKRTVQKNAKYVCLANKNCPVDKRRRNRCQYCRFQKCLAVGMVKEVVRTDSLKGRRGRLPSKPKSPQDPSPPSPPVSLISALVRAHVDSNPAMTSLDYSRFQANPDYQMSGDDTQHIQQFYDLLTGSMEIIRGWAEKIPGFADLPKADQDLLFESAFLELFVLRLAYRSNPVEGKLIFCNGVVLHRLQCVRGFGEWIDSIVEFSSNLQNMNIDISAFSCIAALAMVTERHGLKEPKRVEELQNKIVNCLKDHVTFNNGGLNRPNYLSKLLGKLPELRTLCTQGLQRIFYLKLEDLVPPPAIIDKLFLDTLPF
Description: Evaluation of the in vitro Activity on N2A Cells
Assays consisted in measuring the in vitro activity of the compounds of the invention on a cell line (N2A) endogenously expressing the mouse Nurrl receptor and stably transfected with the NOT binding response element (NBRE) coupled to the luciferase reporter gene. The EC50 values are between 0.01 and 1000 nM. The assays were carried out according to the procedure described below.
The Neuro-2A cell line comes from a standard commercial source (ATCC) . The Neuro-2A clone was obtained from a spontaneous tumor originating from an A albino mouse strain, by R. J Klebe et al. This Neuro-2A line is subsequently stably transfected with 8NBRE-luciferase. The N2A-8NBRE cells are cultured until confluence in 75 cm^2 culture flasks containing DMEM supplemented with 10% of fetal calf serum, 4.5 g/l of glucose and 0.4 mg/ml of geneticin. After a week of culture, the cells are recovered with 0.25% trypsin for 30 seconds and then resuspended in DMEM without phenol red, containing 4.5 g/l of glucose and 10% of Hyclone delipidized serum, and deposited into transparent-bottom 96-well white plates. The cells are deposited at a rate of 60 000 per well in 75 μl for 24 hours before the addition of the products. […] The plates are subsequently measured in a luminescence counter for microplates after having been sealed with an adhesive film. […]

| affinity (classified by maximum binding level and kinetic parameters) (human NOT receptor) | EC50 (mouse Nurrl receptor) [nM] | SMILES |
| --- | --- | --- |
| high affinity | – | O=C(c1ccccc1)c1cn2cc(Cl)ccc2n1 [Compound 3, (6-Chloroimidazo[1,2-a]Pyridin-2-yl)-(Phenyl)Methanone Hydrobromide (1:1)] |
| medium affinity | 1.2 | Cc1ccn2cc(C(=O)c3ccccc3)nc2c1 [Compound 6, (7-methylimidazo[1,2-a]pyridin-2-yl)(phenyl)methanone] |
| – | 31 | O=C(c1ccccc1)c1cn2ccccc2n1 [Compound 7, (imidazo[1,2-a]pyridin-2-yl)(phenyl)methanone] |
